Consider 37 compounds from patent publication US10781177B2, “Pyridine compound and use thereof” (Nippon Soda Co., Ltd., priority 2016, dated 2020).

For orientation: mortality means the share of the test organisms that died. Usually melting point stands for the temperature of the solid-liquid transition.

One series has as its system Tetranychus kanzawai. Nature of the series: Efficacy confirmation test on Tetranychus kanzawai. To be noted: 125 ppm sprayed on kidney bean seedlings with female imagoes, 10th day after spraying, read-out: Mortality rate (converted). The class given is in vivo. The method, then: (§1) An emulsion was prepared in the same manner as in Test Example 1. The emulsion was diluted with water so that the compound of the present invention is to be 125 ppm to obtain a chemical solution.
Kidney bean plants were raised in 3 pots, and inoculated with 10 female imagoes of tetranychus kanzawai on primary leaves. The medicinal solution was sprayed on the kidney bean seedlings. The kidney bean seedlings were placed in a thermostatic chamber at a temperature of 25° C. and a humidity of 65%. On the 10th day after spraying, the survival and death of imagoes of tetranychus kanzawai were determined and the mortality rate was calculated. The test was performed in duplicate.
(§2) The mortality rate was calculated in the same manner as in Test Example 3.
Turning to `COC(=O)Oc1c(C)c(C)nc(C)c1Cc1ccc(Oc2ccc(OC(F)(F)F)cc2)cc1` [1-3, methyl (2,3,6-trimethyl-5-((4-(4-(trifluoromethoxy)phenoxy)phenyl)methyl)-4-pyridyl) carbonate], the mortality at 125 ppm is 100%.

Take `COC(=O)Oc1c(C)c(C)nc(C(C)C)c1Cc1ccc(Oc2ccc(OC(F)(F)F)cc2)cc1` [1-9, (2-isopropyl-5,6-dimethyl-3-((4-(4-(trifluoromethoxy)phenoxy)phenyl)methyl)-4-pyridyl) methyl carbonate]: the mortality at 125 ppm was 100%.

On to `COC(=O)Oc1c(C)c(C)nc(C(C)C)c1Cc1ccc(-c2noc(C(F)(F)F)n2)cc1` [1-44, 2-isopropyl-5,6-dimethyl-3-(4-(5-(trifluoromethyl)-1,2,4-oxadiazole-3-yl)benzyl) pyridine-4-yl methyl carbonate], for which the mortality at 125 ppm was 100%.

Consider `COC(=O)Oc1c(C)c(C)nc(C(C)C)c1Cc1ccc2ccccc2c1` [7-12], for which the mortality at 125 ppm is 100%.

Consider `COC(=O)Oc1c(C)c(C)nc(C(C)C)c1Cc1ccc2c(c1)CCC2c1ccc(F)cc1` (stereo not shown) [7-16], for which the mortality at 125 ppm was 100%.

On to `COC(=O)Oc1c(C)c(C)nc(C(C)C)c1Cc1ccc2sc(C(F)(F)F)nc2c1` [7-20], for which the mortality at 125 ppm was 100%.

As to `COC(=O)Oc1c(C)c(C)nc(C(C)C)c1Cc1ccc2nc(C(F)(F)F)ccc2c1` [7-25], the mortality at 125 ppm was 100%.

Test system in the next series: not given
Experiment: not given
Details: not given
For `Cc1nc(C)c(Cc2cc(-c3ccc(C(F)(F)F)cc3)on2)c(OCc2ccccc2)c1C` [7-4], the melting point was in the range of 118 to 121 °C.

`Cc1nc(C)c(Cc2cc(-c3ccc(C(F)(F)F)cc3)on2)c(O)c1C` [7-5]: the melting point was 200 °C.

Consider `CC(=O)Oc1c(C)c(C)nc(C)c1Cc1cc(-c2ccc(C(F)(F)F)cc2)on1` [7-6], for which the melting point was in the range of 170 to 173 °C.

`C=CCOc1c(C)c(C)nc(C)c1CN1C(=O)c2ccccc2C1=O` [7-7] came in with a melting point of 145 to 147 °C.

Turning to `Cc1nc(C(C)C)c(Cc2ccc(-c3ccc(OC(F)(F)F)cc3)s2)c(O)c1C` [7-8], the melting point came to 250 °C.

The compound `Cc1nc(C(C)C)c(Cc2ccc3ccccc3c2)c(O)c1C` [7-11] came in with a melting point of 268 to 270 °C.

As for `Cc1nc2cc(Cc3c(C(C)C)nc(C)c(C)c3O)ccc2s1` [7-13], the melting point fell in the range of 284 to 286 °C.

In turn, `Cc1nc(C(C)C)c(Cc2ccc3c(c2)CCC3c2ccc(F)cc2)c(O)c1C` (stereo not shown) [7-15] came in with a melting point of 260 to 262 °C.

`Cc1nc(C(C)C)c(Cc2cccc3c2CCC3c2ccc(F)cc2)c(O)c1C` (stereo not shown) [7-17] yielded a melting point of 296 to 298 °C.

Consider `Cc1nc(C(C)C)c(Cc2ccc3sc(C(F)(F)F)nc3c2)c(O)c1C` [7-19], for which the melting point is 273 to 274 °C.

In turn, `Cc1nc(C(C)C)c(Cc2ccc3ncccc3c2)c(O)c1C` [7-21] displayed a melting point of 254 to 256 °C.

For the compound `COC(=O)Oc1c(C)c(C)nc(C(C)C)c1Cc1ccc2ncccc2c1` [7-22], the melting point was in the range of 127 to 128 °C.

Consider `Cc1nc(C(C)C)c(Cc2ccc3cc(C(F)(F)F)ccc3c2)c(O)c1C` [7-24], for which the melting point was 268 to 269 °C.

For `Cc1nc(C(C)C)c(Cc2ccc3ccc(C(F)(F)F)nc3c2)c(O)c1C` [7-26], the melting point was in the range of 290 to 292 °C.

In the case of `COC(=O)Oc1c(C)c(C)nc(C(C)C)c1Cc1ccc2ccc(C(F)(F)F)nc2c1` [7-27], the melting point was 125 to 126 °C.

The compound `Cc1nc(C(C)C)c(Cc2ccc3c(c2)C(c2ccc(F)cc2)CC3)c(O)c1C` (stereo not shown) [7-28] showed a melting point of 221 to 224 °C.

The compound `Cc1nc(C(C)C)c(Cc2cccc3c2oc2ccccc23)c(O)c1C` [7-30] displayed a melting point of 300 °C.

In the case of `COC(=O)Oc1c(C)c(C)nc(C(C)C)c1Cc1cccc2c1oc1ccccc12` [7-31], the melting point was 114 to 116 °C.

Consider `Cc1nc(C(C)C)c(Cc2ccc3sc4ccccc4c3c2)c(O)c1C` [7-32], for which the melting point came out at 300 °C.

For the compound `COC(=O)Oc1c(C)c(C)nc(C(C)C)c1Cc1ccc2sc3ccccc3c2c1` [7-33], the melting point is 154 to 155 °C.

Compound `COCCC(=O)NC1CCc2cc(Cc3c(C(C)C)nc(C)c(C)c3O)ccc21` (stereo not shown) [7-34] came in with a melting point of 115 to 120 °C.

The compound `COc1c(C)c(C)nc(C(C)C)c1Cc1ccc(C2CCC3(CC2)OCCO3)cc1` [7-42] showed a melting point of 107 to 108 °C.

The compound `CCO/N=C(/NC(=O)C1CCC(C)CC1)c1ccc(Cc2c(C(C)C)nc(C)c(C)c2O)cc1` (stereo not shown) [7-43] came in with a melting point of 101 to 115 °C.

As to `CCO/N=C(/NC(=O)C(F)(F)C(F)(F)F)c1ccc(Cc2c(C(C)C)nc(C)c(C)c2O)cc1` [7-45], the melting point fell in the range of 210 to 212 °C.

For the compound `CCO/N=C(/NC(=O)C(F)(F)C(F)(F)F)c1ccc(Cc2c(C(C)C)nc(C)c(C)c2OC(=O)OC)cc1` [7-46], the melting point lay within 98 to 100 °C.

Compound `COC(=O)Oc1c(C)c(C)nc(C(C)C)c1Cc1ccc(C(=O)NC(=O)C2CCC(C)CC2)cc1` (stereo not shown) [7-47] returned a melting point of 169 to 171 °C.

Turning to `COc1c(C)c(C)nc(C(C)C)c1Cc1ccc(NC(=O)CC(C)(C)C)cc1` [7-51], the melting point fell in the range of 154 to 155 °C.

`Cc1nc(C(C)C)c(Cc2ccc(NC(=O)CC(C)(C)C)cc2)c(O)c1C` [7-52] returned a melting point of 300 °C.

For the compound `COC(=O)Oc1c(C)c(C)cc(C(C)C)c1Cc1ccc(-c2ccc(C(C)=NOC3CCC(C(F)(F)F)CC3)cc2)cc1` (stereo not shown) [7-53], the melting point was 58 to 59 °C.

The test system of the next series is bean aphid. Nature of the series: Efficacy confirmation test on bean aphid. The class given is in vivo. To be noted: 125 ppm sprayed on cowpea seedlings with bean aphid nymphs, 4th day after spraying; read-out: Mortality rate (converted). Here is the method: as §1
Cowpea plants were raised in No. 3 pots and inoculated with bean aphid nymphs on primary leaves. The chemical solution was sprayed on the cowpea seedlings. The cowpea seedlings were placed in a thermostatic chamber at a temperature of 25° C. and a humidity of 60%. On the 4th day after spraying, the life and death of the aphid were determined and the mortality rate was calculated. The test was performed in duplicate.
as §2
In the case of `COC(=O)Oc1c(C)c(C)nc(C)c1Cc1ccc(Oc2ccc(OC(F)(F)F)cc2)cc1` [1-3, methyl (2,3,6-trimethyl-5-((4-(4-(trifluoromethoxy)phenoxy)phenyl)methyl)-4-pyridyl) carbonate], the mortality at 125 ppm is 100%.

For the compound `COC(=O)Oc1c(C)c(C)nc(C(C)C)c1Cc1ccc(Oc2ccc(OC(F)(F)F)cc2)cc1` [1-9, (2-isopropyl-5,6-dimethyl-3-((4-(4-(trifluoromethoxy)phenoxy)phenyl)methyl)-4-pyridyl) methyl carbonate], the mortality at 125 ppm was 100%.

With `COC(=O)Oc1c(C)c(C)nc(C(C)C)c1Cc1ccc(-c2noc(C(F)(F)F)n2)cc1` [1-44, 2-isopropyl-5,6-dimethyl-3-(4-(5-(trifluoromethyl)-1,2,4-oxadiazole-3-yl)benzyl) pyridine-4-yl methyl carbonate], the mortality at 125 ppm was 100%.

Regarding `COC(=O)Oc1c(C)c(C)nc(C(C)C)c1Cc1ccc(-c2ccc(OC(F)(F)F)cc2)s1` [7-9], the mortality at 125 ppm is 100%.
